{
  "source": "patent US5496849A",
  "about": "“Sulfonic acid derivative and its pharmaceutical application” (Toray Industries, Inc., priority 1992, dated 1996)",
  "key": {"[1]": {"system": "platelet aggregation induced by U-46619 in human platelet-rich plasma (PRP)", "assay": "Platelet aggregation inhibitory action (U-46619-induced, human platelet-rich plasma)", "assay_type": "cell-based", "conditions": "compounds added 1 minute before U-46619, turbidity", "protocol": "Human whole blood drawn from the median cubital vein was centrifuged for 10 minutes at 800 rpm, and the upper portion was collected as platelet-rich plasma (PRP). […] The size of the aggregates were measured with a platelet aggregate measuring instrument (Hematracer 1, Nikko Bioscience) as the change in turbidity. The compounds were added 1 minute before addition of U-46619, and the concentration which inhibits aggregation by 50% was calculated as the IC50 value."}, "[2]": {"system": "vasoconstriction of rat thoracic aorta induced by U-46619", "assay": "Vasoconstriction inhibitory action (U-46619-induced constriction of thoracic aorta spiral specimens)", "parameters": "species or system long Evans rats", "conditions": "10 min, pH 7.4, minimum concentration at which inhibition rate was 50% or more, 10 ng/ml U-46619, drug applied 10 minutes, 37° C., read-out: Vasoconstriction Inhibitory Action MIC", "protocol": "Male and female long Evans rats having body weights of 150-200 g were used in this example. After sacrificing the animals by decapitation, the thoracic aorta was removed, and the outer membrane was peeled off to obtain I2 spiral specimens roughly 2 cm in length. Blood vessel specimens were warmed to 37° C. and preserved in a Magnus tube containing 10 ml of a nutrient solution aerated with 95% oxygen+5% carbon dioxide gas. The nutrient solution contained 118.3 mmol of NaCl, 4.7 mmol of KCl, […] of CaCl, 1.2 mmol of MgSO4, 1.2 mmol of KH2 PO4, 25 mmol of NaCHO3, 11.1 mmol of D-glucose, 0.03 mmol of EDTA along with 1 μg/ml each of atropin, phentolamine, mepiramine, cyproheptadine, propranolol and indometacin, and was adjusted to a pH of 7.4. Vasoconstriction was measured using an isometric transducer (Harward UF-1 Transducer and Sekonic SS-250F Graph recorder). An equilibration time of 3 hours was provided after the blood vessels were installed on the Magnus device, and fresh nutrient solution was replaced every 30 minutes during that time. […] of U-46619, having TXA2 action (to reach roughly 75% of maximum constriction), was applied for 30 minutes to constrict the vessels. The maximum stable constriction during this time was taken to be the control constriction (C1). Next, the blood vessels were washed several times with nutrient solution to remove the drug. After allowing a recovery period of 30 minutes, the test drugs were applied at various concentrations for 10 minutes followed by again constricting the vessels by applying 10 ng/ml of U-46619 for 30 minutes. The maximum stable constriction during this time was taken to be the constriction of the test drugs (C2). The inhibition rates of vasoconstriction induced by the drugs and U-46619 were determined according to the following formula, and the minimum concentration at which the inhibition rate was 50% or more was determined as the minimum inhibitory concentration (MIC).\n((C1-C2)/C1)×100=Inhibition rate (%)"}, "Thromboxane A2 Receptor": {"target": "T1, Thromboxane A2 Receptor (Oryctolagus cuniculus, UniProt Q6WQI8)", "T1 sequence (Q6WQI8 1-233)": "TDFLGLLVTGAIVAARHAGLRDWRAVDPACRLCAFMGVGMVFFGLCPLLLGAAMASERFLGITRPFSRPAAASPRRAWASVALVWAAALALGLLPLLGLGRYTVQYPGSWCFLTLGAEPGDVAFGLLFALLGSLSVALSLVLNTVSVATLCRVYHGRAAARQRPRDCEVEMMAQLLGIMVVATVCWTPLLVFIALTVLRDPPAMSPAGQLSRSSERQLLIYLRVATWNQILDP", "assay": "Receptor binding experiment: Thromboxane A2 Receptor Binding Test ([3H]SQ29548, washed platelets)", "parameters": "species or system New Zealand White rabbits", "conditions": "rabbit washed platelets; [3H]SQ29548 3 nM; 60 minutes at 25° C.; read-out: Binding Inhibitory Action IC50 (converted)", "protocol": "Whole blood from New Zealand White rabbits was collected into a container containing ACD solution (1.175 g of sodium citrate, 0.685 g of citric acid, and 1 g of dextrose dissolved in 50 ml of distilled water) followed by centrifuging at room temperature for 10 minutes at 180 ×g to obtain platelet-rich plasma. Moreover, this platelet-rich plasma was further centrifuged at room temperature and 2800 ×g to result in sedimentation of the platelets. The platelets were resuspended in 50 mM Tris hydrochloric acid buffer solution (pH 7.2, containing […]) and again centrifuged at 4° C. for 15 minutes at 2800 ×g. This procedure was repeated twice to prepare the washed platelets, and adjusted to a final concentration of 10 mg/ml (wet weight). Tritium-labelled SQ29548 ([3H]SQ29548) was used for the TXA2 ligand. In an antagonism experiment, 20 μl of [3H]SQ29548 at a final concentration of 3 nM were added to 500 μl of a 10 mg/ml platelet suspension, together with adding 2.6 μl of the test drug dissolved in a suitable buffer. After incubating for 60 minutes at 25° C., the mixture was filtered over a glass filter using the Celherbster method, the filter was washed with 50 mM Tris hydrochloric acid buffer solution (3 ×4 ml), and radioactivity was measured with a scintillation counter to determine the amount of [3H]SQ29548 bound to the platelets. In addition, in a saturation test, 20 μl of [3H]SQ29548 were added to a final concentration of 0.1-50 nM followed by the addition of 2.6 μl of BM13505 at a final concentration of 1 μM in order to examine non-specific binding and carry out a binding experiment. The concentration of the test drug which inhibited binding of [3H]SQ29548 by 50% was determined as the IC50 value."}},
  "data": [
    {"smiles": "O=C(O)COc1cccc2c1O[C@H]1CC[C@@H](NS(=O)(=O)c3ccccc3)[C@@H]21", "note": "(racemic) [(94), (1RS, 3aSR, 8bRS)-1-benzenesulfonamido-2,3,3a,8b-tetrahydro-1H-cyclopenta[b]benzofuran-5-yloxyacetic acid]", "values": [
      {"measurement": "IC50", "setting": "[1]", "value": 68, "unit": "nM"},
      {"measurement": "minimal effective concentration", "setting": "[2]", "value": 0.1, "unit": "µg/mL"},
      {"measurement": "IC50", "setting": "Thromboxane A2 Receptor", "value": 16.7, "unit": "nM"}
    ]},
    {"smiles": "CCOC(=O)COc1cccc2c1O[C@H]1C[C@@H](O)[C@H](NS(=O)(=O)c3ccccc3)[C@@H]21", "note": "(racemic) [(102), (1RS, 2RS, 3aSR, 8bRS)-1-benzenesulfonamido-2-hydroxy2,3,3a,8b-tetrahydro-1H-cyclopenta[b]benzofuran-5-yloxyacetic acid ethyl ester]", "values": [
      {"measurement": "IC50", "setting": "[1]", "value": 220, "unit": "nM"},
      {"measurement": "minimal effective concentration", "setting": "[2]", "value": 0.03, "unit": "µg/mL"},
      {"measurement": "IC50", "setting": "Thromboxane A2 Receptor", "value": 415, "unit": "nM"}
    ]},
    {"smiles": "O=C(O)COc1cccc2c1O[C@H]1CC[C@H](OS(=O)(=O)c3ccccc3)[C@@H]21", "note": "(racemic) [(121), (1SR, 3aSR, 8bSR)-1-(phenylsulfonyloxy)-2,3,3a,8b-tetrahydro-1H-cyclopenta[b]benzofuran-5-yloxyacetic acid]", "values": [
      {"measurement": "IC50", "setting": "[1]", "value": 130, "unit": "nM"},
      {"measurement": "minimal effective concentration", "setting": "[2]", "value": 0.003, "unit": "µg/mL"},
      {"measurement": "IC50", "setting": "Thromboxane A2 Receptor", "value": 1.28, "unit": "nM"}
    ]},
    {"smiles": "Cc1ccc(S(=O)(=O)N[C@@H]2[C@H]3c4cccc(OCC(=O)O)c4O[C@H]3C[C@H]2O)cc1", "note": "(relative stereo) [(49), (1RS, 2RS, 3aSR, 8bRS)-1-(p-toluenesulfonamido)-2-hydroxy-2,3,3a,8b-tetrahydro-1H-cyclopenta[b]benzofuran-5-yloxyacetatic acid]", "values": [
      {"measurement": "IC50", "setting": "[1]", "value": 22, "unit": "nM"},
      {"measurement": "minimal effective concentration", "setting": "[2]", "value": 0.01, "unit": "µg/mL"},
      {"measurement": "IC50", "setting": "Thromboxane A2 Receptor", "value": 8.82, "unit": "nM"}
    ]},
    {"smiles": "O=C(O)COc1cccc2c1O[C@H]1C[C@@H](O)[C@H](NS(=O)(=O)c3ccccc3Cl)[C@@H]21", "note": "(relative stereo) [(59), (1RS, 2RS, 3aSR, 8bRS)-1-(o-chlorobenzenesulfonamido)-2-hydroxy-2,3,3a,8b-tetrahydro-1-cyclopenta[b]benzofuran-5-yloxyacetic acid]", "values": [
      {"measurement": "IC50", "setting": "[1]", "value": 69, "unit": "nM"},
      {"measurement": "minimal effective concentration", "setting": "[2]", "value": 0.1, "unit": "µg/mL"},
      {"measurement": "IC50", "setting": "Thromboxane A2 Receptor", "value": 22.7, "unit": "nM"}
    ]},
    {"smiles": "O=C(O)/C=C/c1cccc2c1O[C@H]1C[C@@H](O)[C@H](NS(=O)(=O)c3ccccc3)[C@@H]21", "note": "(relative stereo) [(88), (1RS, 2RS, 3aSR, 8bRS)-1-benzenesulfonamido-2-hydroxy-2,3,3a,8b-tetrahydro-1H-cyclopenta[b]benzofuran-5-(E)-acrylic acid]", "values": [
      {"measurement": "IC50", "setting": "[1]", "value": 450, "unit": "nM"},
      {"measurement": "minimal effective concentration", "setting": "[2]", "value": 0.3, "unit": "µg/mL"},
      {"measurement": "IC50", "setting": "Thromboxane A2 Receptor", "value": 648, "unit": "nM"}
    ]},
    {"smiles": "O=C(O)COc1ccc(CCNS(=O)(=O)c2ccccc2)cc1", "note": "[Control, 4-(2-(benzenesulfonamido)ethyl) phenoxyacetic acid, reference compound]", "values": [
      {"measurement": "IC50", "setting": "[1]", "value": 5000, "unit": "nM"},
      {"measurement": "minimal effective concentration", "setting": "[2]", "value": 0.3, "unit": "µg/mL"},
      {"measurement": "IC50", "setting": "Thromboxane A2 Receptor", "value": 4170, "unit": "nM"}
    ]}
  ]
}
